Reference: ChEMBL document CHEMBL4219032, “Triple Reuptake Inhibitors as Potential Therapeutics for Depression and Other Disorders: Design Paradigm and Developmental Challenges” (J Med Chem, 2018)

Key:
[1] = target: T1, Sodium-dependent serotonin transporter (Homo sapiens, UniProt P31645); test: Inhibition of human SERT expressed in HEK cells assessed as reduction of [3H]5-HT uptake preincubated for 10 mins followed by [3H]5-HT addition measured after 10 mins by scintillation counting method; format: cell-based
[2] = target: T2, Sodium-dependent dopamine transporter (Homo sapiens, UniProt Q01959); test: Inhibition of human DAT expressed in HEK cells assessed as reduction of [3H]-DA uptake preincubated for 10 mins followed by […] measured after 10 mins by scintillation counting method; format: cell-based
[3] = target: T3, Sodium-dependent noradrenaline transporter (Homo sapiens, UniProt P23975); test: Inhibition of human NET expressed in HEK cells assessed as reduction of [3H]-NE uptake preincubated for 10 mins followed by […] measured after 10 mins by scintillation counting method; format: cell-based
[4] = target: Sodium-dependent serotonin transporter (Rattus norvegicus, UniProt P31652); test: Inhibition of rat brain SERT assessed as reduction of [3H]5-HT re-uptake preincubated for 30 mins followed by [3H]5-HT addition measured after 5 mins by scintillation counting
[5] = target: Norepinephrine transporter (Rattus norvegicus, UniProt Q9WTR4); test: Inhibition of rat brain NET assessed as reduction of [3H]-NE re-uptake preincubated for 30 mins followed by [3H]-NE addition measured after 5 mins by scintillation counting
[6] = target: Sodium-dependent dopamine transporter (Rattus norvegicus, UniProt P23977); test: Inhibition of rat brain DAT assessed as reduction of [3H]-DA re-uptake preincubated for 30 mins followed by [3H]-DA addition measured after 5 mins by scintillation counting
[7] = target: T1, Sodium-dependent serotonin transporter; test: Inhibition of human SERT expressed in CHO cells assessed as reduction of [3H]-5-HT re-uptake preincubated for 10 mins followed by [3H]-5-HT addition measured after 10 mins by liquid scintillation counting; format: cell-based
[8] = target: T3, Sodium-dependent noradrenaline transporter; test: Inhibition of human NET expressed in CHO cells assessed as reduction of [3H]-NE re-uptake preincubated for 10 mins followed by [3H]-NE addition measured after 10 mins by liquid scintillation counting; format: cell-based
[9] = target: T2, Sodium-dependent dopamine transporter; test: Inhibition of human DAT expressed in CHO cells assessed as reduction of [3H]-DA re-uptake preincubated for 10 mins followed by [3H]-DA addition measured after 10 mins by liquid scintillation counting; format: cell-based
[10] = target: T2, Sodium-dependent dopamine transporter; test: Inhibition of DAT (unknown origin)-mediated uptake
[11] = target: T2, Sodium-dependent dopamine transporter
Description: Binding affinity to DAT (unknown origin)

[12] = target: T1, Sodium-dependent serotonin transporter; test: Inhibition of SERT (unknown origin)-mediated uptake
[13] = Tmax in human plasma at 30 mg administered qd for 3 days followed by 60 mg administration at qd for next 11 days measured on day 14 post last dose by LC-MS/MS analysis; format: ADME, organism-based
[14] = Half life in human cerebrospinal fluid at 30 mg administered qd for 3 days followed by 60 mg administration at qd for next 11 days measured on day 14 post last dose by LC-MS/MS analysis; format: ADME, tissue-based
[15] = Ratio of drug level in human brain to plasma at 30 mg administered qd for 3 days followed by 60 mg administration at qd for next 11 days measured on day 14 post last dose by LC-MS/MS analysis; format: ADME; settings: read-out: BPR
[16] = target: T1, Sodium-dependent serotonin transporter
Description: Binding affinity to SERT (unknown origin)

Homo sapiens [17] = test: Anti-obesity activity in human assessed as body weight loss at […], po administered for 6 months relative to control; format: functional
Homo sapiens [18] = test: Anti-obesity activity in human assessed as body weight loss at 0.5 mg/kg, po administered for 6 months relative to control; format: functional
Homo sapiens [19] = test: Anti-obesity activity in human assessed as body weight loss at 1 mg/kg, po administered for 6 months relative to control; format: functional
Homo sapiens [20] = test: In vivo receptor occupancy at DAT in human brain at 0.125 to 0.5 mg, iv via bolus dosing measured at 3 hrs post dose by PET analysis; format: functional
[21] = Tmax in human at 9 mg; format: ADME, organism-based; settings: in vivo
[22] = target: T3, Sodium-dependent noradrenaline transporter
Description: Binding affinity to NET (unknown origin)

[23] = target: T2, Sodium-dependent dopamine transporter; test: Inhibition of DAT (unknown origin) assessed as reduction of [3H]-DA re-uptake
Mus musculus [24] = test: In vivo receptor occupancy at NET in mouse at 0.3 mg/kg; format: functional
Mus musculus [25] = test: In vivo receptor occupancy at SERT in mouse at 0.3 mg/kg; format: functional
Mus musculus [26] = test: In vivo receptor occupancy at DAT in mouse at 0.3 mg/kg; format: functional
Homo sapiens [27] = test: In vivo receptor occupancy at SERT in human at 3 mg, po administered on day 1 measured on day 14 by [11C]-DASB -based PET imaging analysis; format: functional
Homo sapiens [28] = test: In vivo receptor occupancy at SERT in human at 0.5 mg, po administered on day 1 measured on day 14 by [11C]-DASB -based PET imaging analysis; format: functional
Homo sapiens [29] = test: In vivo receptor occupancy at DAT in human at 3 mg, po administered on day 1 measured on day 14 by […]-based PET imaging analysis; format: functional
[30] = Tmax in human at 0.025 to 5 mg, po by LC-MS/MS analysis; format: ADME, organism-based; settings: in vivo
[31] = Half life in human at 0.025 to 5 mg, po by LC-MS/MS analysis; format: ADME, organism-based; settings: in vivo
Mus musculus [32] = test: Antidepressant activity in TST mouse model assessed as reduction in immobility time at 0.3 mg/kg, po relative to control; format: functional
Rattus norvegicus [33] = test: In vivo receptor occupancy at SERT in ip dosed rat brain measured 60 mins post dose; format: functional; settings: 1 h
Rattus norvegicus [34] = test: In vivo receptor occupancy at NET in ip dosed rat brain measured 60 mins post dose; format: functional; settings: 1 h
Rattus norvegicus [35] = test: In vivo receptor occupancy at DAT in ip dosed rat brain measured 60 mins post dose; format: functional; settings: 1 h
Mus musculus [36] = test: Reversal of motor depression in po dosed mouse measured at 3rd, 6th and 23rd hr followed by second administration on 24th hr administered as 4 injections for 4 consecutive days measured from day 3 to 10 days post last dose; format: functional; settings: read-out: MED
Mus musculus [37] = test: Reversal of ptosis in po dosed mouse measured at 3rd, 6th and 23rd hr followed by second administration on 24th hr administered as 4 injections for 4 consecutive days measured from day 3 to 10 days post last dose; format: functional
Homo sapiens [38] = test: In vivo receptor occupancy at DAT in human at 8 to 16 mg measured 24 hrs post dose by [11C]-PE2I based PET imaging analysis; format: functional
Homo sapiens [39] = test: In vivo receptor occupancy at SERT in human at 8 to 16 mg after 24 hrs post dose by [11C]-DASB based PET imaging analysis; format: functional
[40] = Tmax in human at 8 to 36 mg by LC-MS/MS analysis; format: ADME, organism-based; settings: in vivo
[41] = Elimination half life in human at 8 to 36 mg by LC-MS/MS analysis; format: ADME, organism-based; settings: in vivo, read-out: beta t1/2
[42] = Half life in human at 4 to 8 mg; format: ADME, organism-based; settings: in vivo
[43] = Ratio of drug uptake in Sprague-Dawley rat brain to plasma at 1 mg/kg, sc by HPLC analysis; format: ADME, organism-based; settings: read-out: BPR
Rattus norvegicus [44] = test: In vivo receptor occupancy at SERT in Sprague-Dawley rat at 0.1 mg/kg, sc measured at 1 to 8 hrs post dose; format: functional
Rattus norvegicus [45] = test: In vivo receptor occupancy at NET in Sprague-Dawley rat at 0.1 mg/kg, sc measured at 1 to 8 hrs post dose; format: functional
Rattus norvegicus [46] = test: In vivo receptor occupancy at DAT in Sprague-Dawley rat at 0.1 mg/kg, sc measured at 1 to 8 hrs post dose; format: functional
Homo sapiens [47] = test: In vivo receptor occupancy at DAT in human at 1 mg/day by PET imaging method; format: functional
Homo sapiens [48] = test: In vivo receptor occupancy at SERT in human at 1 mg/day by PET imaging method; format: functional
Homo sapiens [49] = test: In vivo receptor occupancy at DAT in human at 2 mg/day by PET imaging method; format: functional
Homo sapiens [50] = test: In vivo receptor occupancy at SERT in human at 2 mg/day by PET imaging method; format: functional

T1 sequence (P31645 whole entry): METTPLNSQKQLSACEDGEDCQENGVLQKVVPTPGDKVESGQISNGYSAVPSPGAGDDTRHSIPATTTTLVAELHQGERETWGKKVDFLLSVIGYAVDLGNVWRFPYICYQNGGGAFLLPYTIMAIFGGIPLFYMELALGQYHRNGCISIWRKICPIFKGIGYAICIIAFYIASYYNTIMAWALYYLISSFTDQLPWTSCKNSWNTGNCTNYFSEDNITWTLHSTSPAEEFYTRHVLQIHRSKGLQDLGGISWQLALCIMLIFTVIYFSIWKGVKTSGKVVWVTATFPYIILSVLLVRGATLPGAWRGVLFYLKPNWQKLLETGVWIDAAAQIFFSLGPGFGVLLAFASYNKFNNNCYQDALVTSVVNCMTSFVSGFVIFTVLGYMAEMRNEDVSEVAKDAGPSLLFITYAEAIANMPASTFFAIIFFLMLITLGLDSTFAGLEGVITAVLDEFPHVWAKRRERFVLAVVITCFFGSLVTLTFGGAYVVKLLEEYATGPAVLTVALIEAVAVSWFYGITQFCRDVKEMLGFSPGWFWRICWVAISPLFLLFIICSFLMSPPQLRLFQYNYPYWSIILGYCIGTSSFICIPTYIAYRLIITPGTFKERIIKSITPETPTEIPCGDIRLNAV
T3 sequence (P23975 whole entry): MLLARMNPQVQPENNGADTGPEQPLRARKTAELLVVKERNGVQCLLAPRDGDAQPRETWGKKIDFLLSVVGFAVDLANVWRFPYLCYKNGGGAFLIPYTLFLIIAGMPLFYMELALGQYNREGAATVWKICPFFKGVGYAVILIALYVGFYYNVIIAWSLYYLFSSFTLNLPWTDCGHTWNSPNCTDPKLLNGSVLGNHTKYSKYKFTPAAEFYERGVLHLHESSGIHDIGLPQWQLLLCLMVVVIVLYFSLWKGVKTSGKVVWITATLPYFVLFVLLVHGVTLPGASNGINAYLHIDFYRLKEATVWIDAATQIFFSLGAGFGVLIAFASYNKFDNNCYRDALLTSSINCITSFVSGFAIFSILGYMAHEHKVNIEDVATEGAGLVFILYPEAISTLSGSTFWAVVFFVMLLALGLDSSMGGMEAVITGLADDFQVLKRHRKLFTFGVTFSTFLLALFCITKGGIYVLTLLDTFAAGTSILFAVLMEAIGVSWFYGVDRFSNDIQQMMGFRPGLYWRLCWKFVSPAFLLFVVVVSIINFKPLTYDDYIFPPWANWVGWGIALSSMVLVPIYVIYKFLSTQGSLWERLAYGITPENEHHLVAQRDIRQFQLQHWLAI
T2 sequence (Q01959 whole entry): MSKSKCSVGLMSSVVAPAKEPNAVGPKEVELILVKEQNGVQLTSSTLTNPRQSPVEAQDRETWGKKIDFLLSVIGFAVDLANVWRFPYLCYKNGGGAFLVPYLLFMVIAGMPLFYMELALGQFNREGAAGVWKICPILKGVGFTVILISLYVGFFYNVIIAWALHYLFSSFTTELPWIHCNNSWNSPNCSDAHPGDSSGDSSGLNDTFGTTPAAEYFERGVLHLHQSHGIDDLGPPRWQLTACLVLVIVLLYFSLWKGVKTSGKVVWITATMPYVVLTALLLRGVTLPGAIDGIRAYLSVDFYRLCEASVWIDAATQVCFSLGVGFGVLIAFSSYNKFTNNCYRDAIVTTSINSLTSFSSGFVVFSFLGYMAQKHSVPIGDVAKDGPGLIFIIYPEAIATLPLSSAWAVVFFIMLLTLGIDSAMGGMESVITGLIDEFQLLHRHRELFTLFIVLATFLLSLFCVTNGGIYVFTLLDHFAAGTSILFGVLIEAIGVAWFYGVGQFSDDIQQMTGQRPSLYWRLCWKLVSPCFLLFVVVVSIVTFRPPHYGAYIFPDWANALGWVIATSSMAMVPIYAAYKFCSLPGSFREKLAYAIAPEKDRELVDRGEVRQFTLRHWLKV
Sequence of Sodium-dependent serotonin transporter (Rattus norvegicus, UniProt P31652) (P31652 whole entry): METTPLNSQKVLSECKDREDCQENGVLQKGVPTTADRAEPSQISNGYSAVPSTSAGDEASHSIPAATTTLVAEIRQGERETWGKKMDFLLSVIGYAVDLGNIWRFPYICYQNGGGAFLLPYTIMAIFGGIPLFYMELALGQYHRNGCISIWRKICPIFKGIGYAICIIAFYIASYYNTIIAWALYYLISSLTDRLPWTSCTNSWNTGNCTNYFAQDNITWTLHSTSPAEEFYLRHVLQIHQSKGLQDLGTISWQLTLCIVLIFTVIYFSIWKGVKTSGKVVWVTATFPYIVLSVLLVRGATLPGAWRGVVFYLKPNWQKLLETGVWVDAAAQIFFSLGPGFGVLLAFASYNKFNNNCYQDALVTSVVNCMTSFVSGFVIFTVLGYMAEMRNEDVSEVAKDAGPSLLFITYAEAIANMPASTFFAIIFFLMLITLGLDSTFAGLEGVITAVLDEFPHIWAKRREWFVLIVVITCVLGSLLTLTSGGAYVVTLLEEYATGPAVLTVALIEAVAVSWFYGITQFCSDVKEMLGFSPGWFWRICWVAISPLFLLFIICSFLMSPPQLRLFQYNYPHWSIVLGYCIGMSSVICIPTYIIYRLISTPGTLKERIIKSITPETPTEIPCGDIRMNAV
Sequence of Sodium-dependent dopamine transporter (Rattus norvegicus, UniProt P23977) (P23977 whole entry): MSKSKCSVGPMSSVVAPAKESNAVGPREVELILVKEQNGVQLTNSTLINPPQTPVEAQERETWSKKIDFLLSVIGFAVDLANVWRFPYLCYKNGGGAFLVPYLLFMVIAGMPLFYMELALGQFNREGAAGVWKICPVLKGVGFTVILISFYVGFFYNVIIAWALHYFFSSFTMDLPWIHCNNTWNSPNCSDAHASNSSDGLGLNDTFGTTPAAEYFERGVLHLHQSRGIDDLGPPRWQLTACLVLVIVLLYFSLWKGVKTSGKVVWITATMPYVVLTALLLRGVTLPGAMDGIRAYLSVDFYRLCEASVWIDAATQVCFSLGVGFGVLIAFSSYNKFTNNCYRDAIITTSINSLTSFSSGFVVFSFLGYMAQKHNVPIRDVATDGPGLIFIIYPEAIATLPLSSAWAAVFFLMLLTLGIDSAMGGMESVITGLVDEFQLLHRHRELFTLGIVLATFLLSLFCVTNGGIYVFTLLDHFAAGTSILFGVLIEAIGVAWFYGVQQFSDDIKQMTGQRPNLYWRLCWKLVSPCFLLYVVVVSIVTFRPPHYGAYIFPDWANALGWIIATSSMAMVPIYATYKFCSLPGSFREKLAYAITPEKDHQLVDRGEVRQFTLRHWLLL
Sequence of Norepinephrine transporter (Q9WTR4 whole entry): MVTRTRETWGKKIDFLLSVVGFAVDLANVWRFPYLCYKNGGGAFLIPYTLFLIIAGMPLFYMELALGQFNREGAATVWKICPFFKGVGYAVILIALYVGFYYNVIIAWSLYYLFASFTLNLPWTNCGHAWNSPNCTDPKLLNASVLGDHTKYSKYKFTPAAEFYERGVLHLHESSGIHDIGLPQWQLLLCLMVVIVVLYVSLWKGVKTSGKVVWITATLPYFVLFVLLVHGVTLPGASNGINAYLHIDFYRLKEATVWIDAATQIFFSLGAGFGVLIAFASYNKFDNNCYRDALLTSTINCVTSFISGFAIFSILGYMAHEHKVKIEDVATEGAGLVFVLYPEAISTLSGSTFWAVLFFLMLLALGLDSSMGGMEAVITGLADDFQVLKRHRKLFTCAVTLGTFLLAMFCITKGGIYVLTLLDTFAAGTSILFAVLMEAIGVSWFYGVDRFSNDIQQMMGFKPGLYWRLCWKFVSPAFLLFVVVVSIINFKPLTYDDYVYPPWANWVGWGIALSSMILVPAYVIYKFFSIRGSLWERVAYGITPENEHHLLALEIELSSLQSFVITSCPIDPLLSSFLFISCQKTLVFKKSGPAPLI

SMILES: c1ccc2cc([C@]34CNCC3C4)ccc2c1 (stereo not given in full)
- IC50 [1]: 84 nM
- IC50 [2]: 38 nM
- IC50 [3]: 6 nM

SMILES: CC1CCCN(C(=O)CSC[C@H]2CN(C)CC[C@@H]2c2ccc(Cl)cc2)C1 (stereo not given in full)
- IC50 [4]: 15 nM
- IC50 [5]: 84 nM
- IC50 [6]: 120 nM

SMILES: CN(C)CC(c1ccc(OC(=O)c2ccccc2)cc1)C1(O)CCCCC1 (stereo not given)
- IC50 [7]: 105 nM
- IC50 [8]: 644 nM
- IC50 [9]: 813 nM

SMILES: CN(C)C[C@]1(c2ccc(Cl)c(Cl)c2)CC[C@@](C)(O)CC1
- IC50 [10]: 41 nM
- IC50 [11]: 41 nM
- IC50 [12]: 34 nM
- Tmax [13]: 4 h
- half-life [14]: 18 h
- Kp at 14 day [15]: 0.22
- IC50 [16]: 34 nM

SMILES: CCOC[C@H]1[C@@H](c2ccc(Cl)c(Cl)c2)C[C@@H]2CC[C@H]1N2C
- IC50 [11]: 8 nM
- Activity (Homo sapiens [17]): 4.5%
- Activity (Homo sapiens [18]): 9.2%
- Activity (Homo sapiens [19]): 10.6%
- Occ (Homo sapiens [20]): 18 - 77%
- Tmax [21]: 6 h
- IC50 [16]: 11 nM
- IC50 [22]: 3.2 nM

SMILES: CNC[C@H]1C2CCC(C2)[C@@H]1c1ccc2ccccc2c1 (stereo not given in full)
- IC50 [23]: 96 nM

SMILES: CN1Cc2cc(-c3ccc(N)nn3)ccc2[C@H](c2ccc3ccccc3c2)C1 [LIAFENSINE]
- Occ (Mus musculus [24]): 76%
- Occ (Mus musculus [25]): 86%
- Occ (Mus musculus [26]): 28%
- Occ (Homo sapiens [27]): 82%
- Occ (Homo sapiens [28]): 19%
- Occ (Homo sapiens [29]): 19%
- Tmax [30]: 5 to 7.2 h
- half-life [31]: 34 to 57 h
- inhibition in vivo at 0.3 mg/kg (Mus musculus [32]): 77%
- IC50 [16]: 1.1 nM
- IC50 [22]: 8.8 nM

SMILES: Clc1ccc([C@]23CNC[C@H]2C3)cc1Cl [AMITIFADINE]
- ED50 (Rattus norvegicus [33]): 3 mg/kg
- ED50 (Rattus norvegicus [34]): 19 mg/kg
- ED50 (Rattus norvegicus [35]): 95 mg/kg
- minimal effective dose (Mus musculus [36]): 1.6 mg/kg
- ED50 (Mus musculus [37]): 2.2 mg/kg

SMILES: CNC[C@]1(c2ccc(Cl)c(Cl)c2)CC[C@](C)(O)CC1
- IC50 [10]: 71 nM
- IC50 [12]: 210 nM
- Tmax [13]: 6 h
- half-life [14]: 32 h
- Kp at 14 day [15]: 0.46

SMILES: N[C@H]1CC[C@H](c2ccc(Cl)c(Cl)c2)c2ccccc21
- IC50 [11]: 2 nM
- Occ (Homo sapiens [38]): 33 - 49%
- Occ (Homo sapiens [39]): 2 - 14%
- Tmax [40]: 10 to 12 h
- half-life [41]: 44 to 77 h
- half-life [42]: 47 h
- IC50 [22]: 4 nM

SMILES: COC(=O)[C@H]1CN(C)CC[C@@H]1c1ccc(Cl)cc1
- IC50 [4]: 8490 nM
- IC50 [5]: 252 nM
- IC50 [6]: 233 nM

SMILES: C#Cc1ccc(C2CN3CCCC3c3ccccc32)cc1 (racemic)
- Ki [11]: 5.2 nM
- Kp [43]: 7.5
- Occ (Rattus norvegicus [44]): 94%
- Occ (Rattus norvegicus [45]): 95%
- Occ (Rattus norvegicus [46]): 50%
- Ki [16]: 0.9 nM
- Ki [22]: 16.6 nM

SMILES: COC[C@H]1[C@@H](c2ccc(Cl)c(Cl)c2)C[C@@H]2CC[C@H]1N2C
- IC50 [11]: 10 nM
- Occ (Homo sapiens [47]): 60%
- Occ (Homo sapiens [48]): 55%
- Occ (Homo sapiens [49]): 80%
- Occ (Homo sapiens [50]): 75%
- IC50 [16]: 10 nM
- IC50 [22]: 2 nM
